From ChEMBL document CHEMBL1142754, “Lp-PLA2 inhibitory activities of fatty acid glycerols isolated from Saururus chinensis roots” (Bioorg Med Chem Lett, 2005)

Experiment: Inhibitory concentration against lipoprotein-associated phospholipase A2 (Lp-PLA2) was determined in Pseudomonas fluorescens (DMS 115797)

Row | IC50 [µM] | SMILES
1 | 52 | CCCCC/C=C\C/C=C\CCCCCCCC(=O)OC[C@H](O)CO
2 | 4.5 | CCCCC/C=C\C/C=C\CCCCCCCC(=O)OC[C@@H](O)CO [GLYCERYL MONOLINOLEATE]
